Experimental findings from US7705203B2, “Benzoate inductible promoters” (Purdue Research Foundation, priority 2002, dated 2010) are described below.

“Also recorded” adds a separate entry of the source.

For assay [1], the system named is bphA gene. Kind of assay: RNA (Northern) blot of bphA gene transcription in mycelia. The format is cell-based, Aspergillus niger. The settings on record: 8 mM inducer, RNA blot (FIG. 4). On the procedure:
The time course gene expression induction was examined by analyzing total RNA at different times after adding benzoic acid. Northern (RNA) blots were carried out using total RNA extracted from mycelia grown for different periods of time in the presence of benzoic acid. Initially, the fungus was inoculated in CM medium (Pontecorvo (1953) Adv. Genet. 5: 141-238) for 24 hours, transferred to benzoate-containing medium (0.1% w/v) for different times, and total RNA was extracted using the Rneasy Plant Total RNA kit (Qiagen Inc, Valencia, Calif.) according to the manufacturer's instructions. Total RNA was resolved on a formaldehyde-agarose gel and transferred to a Hybond-N nylon membrane (Amersham Life Sci. Inc, Arlington Heights, Ill.). Radiolabeled BPH probe was allowed to hybridize to the membrane, as described above. Northern blot methods were also carried out as recommended (Amersham).
Different benzoate concentrations and inducers were used to better characterize the inducibility of the bphA gene. Gene expression was assayed by Northern blots. Benzoate 4-hydroxylase activity is also assessed by enzymatic assays to confirm the inducibility at the transcriptional level described by Van Gorcom et al. ((1990) Mol. Gen. Genet. 223, 192-197). Inducibility is also verified by reverse transcription of mRNAs produced under induction conditions.
To verify the inducibility of the bphA gene by benzoic acid, A. niger was inoculated in complete medium and grown for 24 hours before being transferred to fresh medium containing 0.1% benzoic acid. Mycelia were harvested after different periods of induction, and total RNA was extracted.

Assay [2] relates to BRE. As to the kind of experiment: Activation of BRE fused to GFP in fungal protoplasts (surface receptor test). Type of assay: cell-based. On the procedure:
While not necessary to understand to practice the invention, a more complicated mechanism of induction may include a surface receptor that binds to benzoate and which then initiates either some kind of signal transduction cascade or the release of a TF that then culminates in the activation of the BPH promoter (FIGS. 12C and D). The hypothesis of a surface receptor was tested by using the p-NH2-benzoate coupled to agarose (as described above) as a non-cleavable external probe. Fungal protoplasts containing the BRE fused to GFP were then prepared, and activation of the BRE (production of the GFP marker) by addition of the agarose-immobilized benzoate derivative to the fungal protoplasts was scored. […] In order to investigate whether the disparity of size between the larger agarose beads and fungal protoplasts may have caused steric problems in binding of the inducer, smaller ligands still incapable of uptake are constructed and utilized to confirm a non-membrane surface location.
The hypothesis of a surface receptor was tested by using the p-NH2-benzoate coupled to agarose (as described above) as a non-cleavable external probe. Fungal protoplasts containing the BRE fused to GFP were then prepared, and activation of the BRE (production of the GFP marker) by addition of the agarose-immobilized benzoate derivative to the fungal protoplasts was scored. […]

Assay [3] relates to BREF51. Kind of assay: Electrophoretic Mobility Shift Assay (EMSA) with total protein extracts from yeast GAD clones. The note with it: 5 μg total yeast protein extract. Type of assay: binding, A. niger. From the text: The protein encoded by GAD1 (SEQ ID NO:15) is highly similar to a predicted protein present in the A. nidulans genome (E value 2e^−83), and similar to a hypothetical protein (B24P11.210) in the N. crassa genome (E value 4e^−27) (Table 2). GAD1 protein is rich in serine residues (16%), and is predicted by PSORTII (Nakai and Horton (1999) Trends Biochem. Sci. 24: 34-35) to be localized in the nucleus (70.6% probability). […] Serine-rich motifs can be phosphorylation targets by protein kinase C in proteins (Branden and Tooze (1999) Introduction to protein structure, 2nd ed. Garland Publishing, New York, N.Y. 410 p.). […] While not necessary to understand in order to practice the present invention, if GAD1 is involved in the regulation of BPHprom, GAD1 protein might be always bound to a benzoic acid response element in the bphA promoter. […] However, addition of benzoic acid could cause phosphorylation of one of the serine residues in GAD1, leading to its activation. […]
Positive clones identified on the one-hybrid screen were grown in 100 mL of SD/-Leu media, and total proteins were extracted following a modified procedure from that described by Arndt et al. ((1987) Science 237: 874-880). […] Protein concentration of the resulting supernatant was determined by the Bradford method (Bio-Rad, Hercules, Calif.), and BSA was used as a standard.

As for `OCc1ccccc1` [benzyl alcohol], the “induction of transcription of the bphA gene” value (“induction” below) was “do not induce the promoter” in assay [1] and “not effective inducers” in assay [1] (listed as Benzyl alcohol).
`O=C(O)CCc1ccccc1` [hydrocinnamic acid]: the “induction” value in assay [1] is recorded as “do not induce the promoter; also recorded: not effective inducers”.
As to `COC(=O)c1ccccc1` [methyl benzoate], the “induction” value in assay [1] is on record as “can induce the promoter; also recorded: induced”.
For the molecule `Nc1ccc(C(=O)O)cc1` [p-aminobenzoate], the “GFP fluorescence in the BRE-GFP transformed line” value in assay [2] is “induced GFP fluorescence”.
Take `O=C([O-])c1ccccc1.[Na+]` [sodium benzoate]: in assay [1], the “induction” value is “can induce the promoter; also recorded: induced”.

B1: GAD11: protein encoded by yeast one-hybrid clone GAD11 (SEQ ID NO:17), candidate transcription factor binding BREF51 (protein)
chain: DSAESRFSLHSQGSVPPAPSTATKHMTPHNHTNNHGGPLPSKPGSEGASNNGTQITGPHESNLIEQFREREDKLWAYVRSVHEELNGLRTEVAALRAQLASANVNALAMSSQSAPQSQPETNAAGTSQR
modifications: Aspergillus niger
Regarding B1, the “gel mobility shift of the BREF51 fragment” value in assay [3] was “showed a gel mobility shift; also recorded: positive mobility shifts”.

B2: GAD1: protein encoded by yeast one-hybrid clone GAD1 (SEQ ID NO:15), candidate transcription factor binding BREF51 (protein)
chain: MVSFKSLLTATTLATAVLAIPHSGHGHGSHKHRSTHVASKRTSSSKRGAAYNSASSVHTLTSGSSGNGTVSWAYDWNMYADGTLPSNVEYVPMLWGSKMFGGWLTAIETALDSGSNYIMGFNEPDSSSQASMTASEAASSYKNYITPYSGKAKLVTPAVTSSTTEGEGLSWMKSFLSECSECDMSVLAVHWYGTSADEFKSFVQEAMQVADDNGLDETWVTEFALTSDESAGGDESSAADFLDEGVGRYAYYMCADGYLLSGEELSSSGKVYVA
modifications: Aspergillus niger
B2: the “gel mobility shift of the BREF51 fragment” value in assay [3] is recorded as “showed a gel mobility shift; also recorded: positive mobility shifts”.
